Read-outs that look alike come from different tables or passages of the source.
Columns and labels:
[1] = test system: transgenic T. cruzi parasites expressing firefly luciferase; type: in vivo, Balb/c mice; conditions: for parasite load after 10 days of treatment: acute murine model, p < 0.0001; for parasitic level after 5-day treatment: compared to untreated control
Description: A fast luminescence assay was used in an acute infected murine model, in which transgenic T. cruzi parasites expressing firefly luciferase were injected in 5 week-old Balb/c mice. Mice were injected with D-luciferin before imaging. Groups of 5 mice/group were treated i.p. for 10 consecutive days with each compound, at 13 or 15 mg/kg/day. […] The mean ratio of parasite levels was calculated after 5 and 10 days of treatment.
For in vivo studies, a Brazilian strain trypomastigotes from transgenic T. cruzi parasites expressing firefly luciferase were used as described before. Briefly, parasites (10^5 trypomastigotes) were injected in 5 week-old Balb/c mice (Taconic) and three days later mice were anesthesized by inhalation of isofluorane, followed by an injection with 150 mg/kg of D-luciferin potassium-salt in PBS. Mice were imaged 5–10 min after injection of luciferin with an IVIS 100 (Xenogen, Alameda, CA) and the data acquisition and analysis were performed with the software LivingImage (Xenogen) as described before. Treatment with test compounds started 4 days post infection at 13 or 15 mg/kg/day × 10 days, given i.p. The vehicle control was 2% methylcellulose +0.5% Tween 80 and groups of 5 mice/group were used. Mice were imaged after 5 and 10 days of treatment. The ratio of parasite levels was calculated for each animal dividing the luciferase signal after treatment by the luciferase signal on the first imaging (before treatment). Mean values of all animals in each group ± SD were used for plotting.

[2] = test system: T.b. rhodesiense, strain STIB 900 trypomastigotes; assay: In vitro activity against T. b. rhodesiense; type: cell-based; conditions: for SI (T.b.r.): IC50 in L6 cells/IC50 in T.b. rhodesiense; for anti-HAT activity class (TDR criteria): T. b. rhodesiense; for IC50: Trypanosoma brucei, read-out: T.b.r. IC50; for fold more potent against T. b. rhodesiense than the corresponding acetamide: propanamide vs acetamide analog
Description: (§1) Compounds in Table 1 were screened for anti-parasitic activity against three trypanosomatids: T. cruzi, T. b. rhodesiense and Leishmania donovani and compared with previously made analogs shown in orange and designated with a. […] In addition, compounds were tested for toxicity in L6 rat skeletal myoblasts, the host cells for T. cruzi amastigotes, in order to calculate a selectivity index for each parasite [SI = IC50L6/IC50parasite] (Table 1). The TDR (Special Programme for Research and Training in Tropical Diseases, World Health Organization) criteria were adopted to interpret antiparasitic activity and selectivity.
(§2) In vitro activity against T. cruzi, T. b. rhodesiense, L. donovani and cytotoxicity assessment using L6 cells (rat skeletal myoblasts) was determined using a 96-well plate format as previously described. Data were analyzed with the graphic program Softmax Pro (Molecular Devices, Sunnyvale, CA, USA), which calculated IC50 values by linear regression from the sigmoidal dose inhibition curves.

[3] = test system: T.b. rhodesiense, strain STIB 900 trypomastigotes; set-up: method as in PMID 26344593, PMID 25580906; conditions: cited from earlier work; for anti-HAT activity class (TDR criteria): T. b. rhodesiense, previously evaluated acetamides; for IC50: previously evaluated compounds (orange, designated a), read-out: T.b.r. IC50
[4] = test system: T. cruzi, strain Tulahuen C4 amastigotes; conditions: cited from earlier work; for IC50: previously evaluated compounds (orange, designated a), read-out: T. c. IC50; for SI (T. c.): IC50 L6/IC50 parasite; for SI (T. c.) / Bnz/comp: previously evaluated compounds; for Bnz/comp: fold potency relative to Bnz
[5] = test system: L. donovani axenic, strain MHOM-ET-67/L82 amastigotes; set-up: method as in PMID 26344593, PMID 25580906; conditions: cited from earlier work; for IC50: previously evaluated compounds (orange, designated a), read-out: L.d. IC50; for SI (L.d.): IC50 L6/IC50 parasite, previously evaluated compounds
[6] = Cytotoxicity in the host L6 cells; type: cell-based, rat; conditions: rat, L6 cells (rat skeletal myoblasts); cytotoxicity in host L6 cells; read-out: Cyt. L6 IC50
Description: as §1, §2

[7] = test system: T. cruzi, strain Tulahuen C4 amastigotes; assay: In vitro activity against T. cruzi; type: cell-based; conditions: for IC50: Trypanosoma cruzi, T. cruzi Tulahuen C4 amastigotes, means of 2 to 3 measurements, SD < 5%, read-out: T. c. IC50; for Bnz/comp: fold antichagasic potency relative to Bnz (T. cruzi IC50 ratio); for SI (T. c.): IC50 in L6 cells/IC50 in T. cruzi
Description: (§3) The concentration of compound that inhibits parasite growth by 50% (IC50) was calculated from dose response curves for each parasite (Table 1). In addition, compounds were tested for toxicity in L6 rat skeletal myoblasts, the host cells for T. cruzi amastigotes, in order to calculate a selectivity index for each parasite [SI = IC50L6/IC50parasite]
(§4) In vitro activity against T. cruzi, T. b. rhodesiense, L. donovani and cytotoxicity assessment using L6 cells (rat skeletal myoblasts) was determined using a 96-well plate format as previously described [37]. Data were analyzed with the graphic program Softmax Pro (Molecular Devices, Sunnyvale, CA, USA), which calculated IC50 values by linear regression from the sigmoidal dose inhibition curves.

[8] = test system: L. donovani axenic, strain MHOM-ET-67/L82 amastigotes; assay: In vitro activity against L. donovani; type: cell-based; conditions: for SI (L.d.): IC50 in L6 cells/IC50 in L. donovani; for IC50: Leishmania donovani, L. donovani axenic amastigotes MHOM-ET-67/L82, means of 2 to 3 measurements, SD < 5%, read-out: L.d. IC50
Description: as §3, §4

[9] = test system: L6 cells (rat skeletal myoblasts); set-up: method as in PMID 26344593, PMID 25580906; conditions: previously evaluated compounds (orange, designated a); read-out: Cyt. L6 IC50; cited from earlier work
[10] = test system: bloodstream form T.b. brucei recombinant parasites expressing wild type (-tet) or elevated (+tet) levels of TbNTR; assay: microbe, parasite or virus in culture; type: cell-based; conditions: for IC50: Trypanosoma brucei; for Ratio –tet/+tet: ratio of IC50 values -tet/+tet
Description: The BSF of T. brucei parasites were seeded at 1 × 10^3 mL^−1 in 200 μL of growth medium containing different concentrations of nitroheterocycle. Where appropriate, induction of the TbNTR was carried out by adding tetracycline (1 μg/mL). After incubation for 3 days at 37 °C, 20 μL of Alamar blue was added to each well and the plates incubated for a further 16 h. The cell density of each culture was determined as described before [20] and the IC50 established.

[11] = test system: bloodstream form T.b. brucei wild type; assay: T. brucei antiproliferating assay, wild type; type: cell-based; conditions: means from 4 experiments ± SD
Description: The BSF of T. brucei parasites were seeded at 1 × 10^3 mL^−1 in 200 μL of growth medium containing different concentrations of nitroheterocycle. Where appropriate, induction of the TbNTR was carried out by adding tetracycline (1 μg/mL). After incubation for 3 days at 37 °C, 20 μL of Alamar blue was added to each well and the plates incubated for a further 16 h. The cell density of each culture was determined as described before and the IC50 established.

[12] = T.b. rhodesiense STIB 900 trypomastigotes, means of 2 to 3 measurements, SD < 5%
[13] = read-out: IC50 value T.b. brucei TbNTR (+tet)
[14] = read-out: IC50 value T.b. brucei TbNTR (-tet)
[15] = Trypanosoma brucei, read-out: IC50 value T.b. brucei Wild type, bloodstream form

SMILES: O=C(Cn1ccnc1[N+](=O)[O-])NCc1ccccc1 [Bnz, Benznidazole, reference compound]
- parasite load after 10 days of treatment ([1]; 15 mg/kg/day i.p. x 10 days): undetectable levels
- parasitic level after 5-day treatment ([1]; 15 mg/kg/day i.p.): Statistically significant reduction in parasitic level

SMILES: O=C(Cn1cnc([N+](=O)[O-])n1)NCc1ccc(C(F)(F)F)cc1 [Compound 2a]
- fold more potent against T. b. rhodesiense than 2 ([2]; compared with N-methyl acetamide 2): 5.8 fold
- anti-HAT activity class (TDR criteria) [3]: inactive
- IC50 [3]: 6470 nM
- IC50 [4]: 970 nM
- IC50 [5]: 10400 nM

SMILES: CN(C(=O)Cn1ccnc1[N+](=O)[O-])c1ccc(C(F)(F)F)cc1 [Compound 3, N-methyl-2-(2-nitro-1H-imidazol-1-yl)-N-(4-(trifluoromethyl)phenyl)acetamide]
- melting point: 45 to 47 °C
- SI (T.b.r.) [2]: 1.9
- anti-HAT activity class (TDR criteria) [2]: inactive
- IC50 [2, 12]: 97700 nM
- IC50 [6]: 189000 nM
- antichagasic activity class (TDR criteria) ([7]; T. cruzi): moderately active (IC50 between 4.0 and 60 μM)
- IC50 [7]: 49400 nM
- SI (L.d.) [8]: 3.96
- IC50 [8]: 47700 nM

SMILES: O=C(Cn1cnc([N+](=O)[O-])n1)Nc1ccc(Oc2ccc(Cl)cc2)cc1 [Compound 6a]
- IC50 [9]: 28900 nM
- IC50 [3]: 1330 nM
- SI (T. c.) [4]: 3615
- Bnz/comp [4]: 254
- SI (L.d.) [5]: 853
- IC50 [5]: 34 nM

SMILES: O=C(CCn1cnc([N+](=O)[O-])n1)Nc1ccc(Oc2ccc(F)cc2)cc1 [Compound 7, N-(4-(4-fluorophenoxy)phenyl)-3-(3-nitro-1H-1,2,4-triazol-1-yl)propanamide]
- IC50 [2, 12]: 167 nM
- IC50 [6]: 23400 nM
- IC50 [7]: 40 nM
- Bnz/comp [7]: 55
- toxicity symptoms in treated mice ([1]; 13 mg/kg/day i.p. x 10 days): No toxicity symptoms were observed
- parasite load after 10 days of treatment ([1]; 13 mg/kg/day i.p. x 10 days): undetectable levels
- parasitic level after 5-day treatment ([1]; 13 mg/kg/day i.p.): Statistically significant reduction in parasitic level
- IC50 [10, 13]: 330 ± 30 nM
- IC50 [10, 14]: 680 ± 70 nM
- IC50 [11, 15]: ~650 nM
- IC50 ([11]; read-out: IC50 value T.b. brucei Wild type, bloodstream form): 570 ± 50 nM
- IC50 [8]: 1180 nM

SMILES: O=C(Cn1cnc([N+](=O)[O-])n1)Nc1ccc(Oc2ccc(F)cc2)cc1 [Compound 7a]
- IC50 [9]: 70400 nM
- IC50 [3]: 2000 nM
- SI (T. c.) [4]: 1954
- Bnz/comp [4]: 56
- IC50 [4]: 36 nM
- SI (L.d.) [5]: 384
- IC50 [5]: 183 nM

SMILES: O=C(CCn1cnc([N+](=O)[O-])n1)Nc1ccc(Oc2ccccc2)cc1 [Compound 8, 3-(3-Nitro-1H-1,2,4-triazol-1-yl)-N-(4-phenoxyphenyl)propanamide]
- melting point: 108 to 110 °C
- SI (T.b.r.) [2]: 203
- IC50 [2, 12]: 156 nM
- fold more potent against T. b. rhodesiense than the corresponding acetamide [2]: 17.4 fold
- IC50 [6]: 31600 nM
- SI (T. c.) [7]: 398
- IC50 [7]: 79 nM
- Bnz/comp [7]: 28
- IC50 [10, 13]: 410 ± 10 nM
- IC50 [10, 14]: 1470 ± 30 nM
- IC50 [11, 15]: 140 ± 10 nM
- IC50 [8]: 2330 nM

SMILES: O=C(Cn1cnc([N+](=O)[O-])n1)Nc1ccc(Oc2ccccc2)cc1 [Compound 8a]
- IC50 [9]: 92000 nM
- IC50 [3]: 2720 nM
- SI (T. c.) [4]: 1416
- Bnz/comp [4]: 31
- IC50 [4]: 65 nM
- SI (L.d.) [5]: 339
- IC50 [5]: 271 nM

SMILES: O=C(CCn1cnc([N+](=O)[O-])n1)Nc1cccc(-c2ccccc2)c1 [Compound 10, N-([1,1′-biphenyl]-3-yl)-3-(3-nitro-1H-1,2,4-triazol-1-yl)propanamide]
- melting point: 174 to 176 °C
- SI (T.b.r.) [2]: 134
- IC50 [2, 12]: 270 nM
- fold more potent against T. b. rhodesiense than the corresponding acetamide [2]: 214 fold
- IC50 [6]: 36200 nM
- SI (T. c.) [7]: 452
- IC50 [7]: 80 nM
- Bnz/comp [7]: 28
- fold more potent against T. cruzi than the acetamide analog ([7]; propanamide vs acetamide analog): 2.2 fold
- IC50 [10, 13]: 230 ± 20 nM
- IC50 [10, 14]: 5580 ± 620 nM
- IC50 [11, 15]: 6660 ± 920 nM
- SI (L.d.) [8]: 10.2
- IC50 [8]: 3550 nM

SMILES: O=C(Cn1cnc([N+](=O)[O-])n1)Nc1cccc(-c2ccccc2)c1 [Compound 10a]
- IC50 [9]: 45300 nM

SMILES: O=C(Cn1cnc([N+](=O)[O-])n1)Nc1cccc(OCc2ccccc2)c1 [Compound 11a]
- IC50 [9]: 68400 nM
- anti-HAT activity class (TDR criteria) [3]: moderately active (IC50 between 0.5 and 6.0 μM)
- IC50 [3]: 4860 nM
- Bnz/comp [4]: 17
- IC50 [5]: 3360 nM

SMILES: O=C(CCn1cnc([N+](=O)[O-])n1)Nc1cc(-c2ccc(F)cc2)on1 [Compound 12, N-(5-(4-fluorophenyl)isoxazol-3-yl)-3-(3-nitro-1H-1,2,4-triazol-1-yl)propanamide]
- melting point: 215 °C (dec.)
- SI (T.b.r.) [2]: >201
- anti-HAT activity class (TDR criteria) [2]: moderately active (IC50 between 0.5 and 6.0 μM)
- IC50 [2, 12]: 1440 nM
- fold more potent against T. b. rhodesiense than the corresponding acetamide [2]: 5.6 fold
- IC50 [6]: > 289000 nM
- SI (T. c.) [7]: >794
- IC50 [7]: 364 nM
- Bnz/comp [7]: 6
- IC50 [10, 13]: 400 nM
- IC50 [10, 14]: 1610 ± 100 nM
- Ratio –tet/+tet [10]: 4.1
- IC50 [11, 15]: 760 ± 100 nM
- SI (L.d.) [8]: >37
- antileishmanial activity class (TDR criteria) ([8]; L. donovani): inactive
- IC50 [8]: 7790 nM

SMILES: Nc1nc(N)nc(Nc2ccc([As]3SCC(CO)S3)cc2)n1 (centres unmarked) [Melars., Melarsoprol, reference compound]
- IC50 [2]: 9 ± 1 nM

SMILES: CC1CS(=O)(=O)CCN1/N=C/c1ccc([N+](=O)[O-])o1 (centres unmarked) [nfx, Nifurtimox, reference compound]
- IC50 [10, 13]: 869 ± 46 nM
- IC50 [10, 14]: 6360 ± 119 nM
- Ratio –tet/+tet [10]: 7.3
- IC50 ([11]; Trypanosoma brucei, bloodstream form, read-out: IC50 value T.b. brucei Wild type): 3980 ± 150 nM
